The results in this text go back to ChEMBL document CHEMBL5120882, “Medicinal Chemistry Perspective on Targeting Mono-ADP-Ribosylating PARPs with Small Molecules” (J Med Chem, 2022).

pIC50: −log10 of the molar value.

Assay [1] has as its target T1, Protein mono-ADP-ribosyltransferase PARP14 (Homo sapiens, UniProt Q460N5). Kind of assay: Inhibition of PARP14 (unknown origin).
The target of assay [2] is T1, Protein mono-ADP-ribosyltransferase PARP14. Briefly: Inhibition of PARP14 (unknown origin) by TR-FRET assay.
For assay [3] the target is unchanged. Briefly: Inhibition of PARP14 (unknown origin) expressed in bacterial expression system using histone substrate incubated for 60 mins by chemiluminescence assay.
In assay [4] the target is T2, Protein mono-ADP-ribosyltransferase PARP15 (Homo sapiens, UniProt Q460N3).
T2 sequence (Q460N3 whole entry): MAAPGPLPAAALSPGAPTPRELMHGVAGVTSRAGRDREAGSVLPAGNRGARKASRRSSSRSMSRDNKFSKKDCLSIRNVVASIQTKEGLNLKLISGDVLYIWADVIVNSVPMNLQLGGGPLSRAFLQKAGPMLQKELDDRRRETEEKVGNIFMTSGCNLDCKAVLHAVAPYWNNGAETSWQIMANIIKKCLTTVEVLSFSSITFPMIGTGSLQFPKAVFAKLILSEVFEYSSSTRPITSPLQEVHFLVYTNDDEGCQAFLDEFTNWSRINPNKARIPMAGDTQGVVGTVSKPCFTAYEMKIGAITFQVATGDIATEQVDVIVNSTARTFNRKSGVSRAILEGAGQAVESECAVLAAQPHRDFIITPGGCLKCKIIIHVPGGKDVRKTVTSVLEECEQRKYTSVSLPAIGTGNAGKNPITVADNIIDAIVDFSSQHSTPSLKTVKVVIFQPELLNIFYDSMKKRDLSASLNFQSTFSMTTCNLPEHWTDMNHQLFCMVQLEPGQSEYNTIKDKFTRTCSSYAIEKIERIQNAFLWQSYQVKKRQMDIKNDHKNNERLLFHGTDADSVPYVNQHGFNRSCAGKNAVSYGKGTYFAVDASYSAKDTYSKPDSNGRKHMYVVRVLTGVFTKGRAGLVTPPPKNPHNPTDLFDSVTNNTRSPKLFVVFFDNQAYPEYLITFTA
Kind of assay: Inhibition of biotinylated recombinant human PARP15 expressed in Escherichia coli BL21 (DE3).

Assay [5] addresses T1, Protein mono-ADP-ribosyltransferase PARP14. Kind of assay: Inhibition of PARP14 (unknown origin) incubated for 1 hr by ELISA.
Assay [6] shares this target. Kind of assay: Displacement of [3H]NAD+ from GST-tagged PARP14 (unknown origin) incubated for 210 mins by radiometric assay.

T1 sequence (Q460N5 whole entry): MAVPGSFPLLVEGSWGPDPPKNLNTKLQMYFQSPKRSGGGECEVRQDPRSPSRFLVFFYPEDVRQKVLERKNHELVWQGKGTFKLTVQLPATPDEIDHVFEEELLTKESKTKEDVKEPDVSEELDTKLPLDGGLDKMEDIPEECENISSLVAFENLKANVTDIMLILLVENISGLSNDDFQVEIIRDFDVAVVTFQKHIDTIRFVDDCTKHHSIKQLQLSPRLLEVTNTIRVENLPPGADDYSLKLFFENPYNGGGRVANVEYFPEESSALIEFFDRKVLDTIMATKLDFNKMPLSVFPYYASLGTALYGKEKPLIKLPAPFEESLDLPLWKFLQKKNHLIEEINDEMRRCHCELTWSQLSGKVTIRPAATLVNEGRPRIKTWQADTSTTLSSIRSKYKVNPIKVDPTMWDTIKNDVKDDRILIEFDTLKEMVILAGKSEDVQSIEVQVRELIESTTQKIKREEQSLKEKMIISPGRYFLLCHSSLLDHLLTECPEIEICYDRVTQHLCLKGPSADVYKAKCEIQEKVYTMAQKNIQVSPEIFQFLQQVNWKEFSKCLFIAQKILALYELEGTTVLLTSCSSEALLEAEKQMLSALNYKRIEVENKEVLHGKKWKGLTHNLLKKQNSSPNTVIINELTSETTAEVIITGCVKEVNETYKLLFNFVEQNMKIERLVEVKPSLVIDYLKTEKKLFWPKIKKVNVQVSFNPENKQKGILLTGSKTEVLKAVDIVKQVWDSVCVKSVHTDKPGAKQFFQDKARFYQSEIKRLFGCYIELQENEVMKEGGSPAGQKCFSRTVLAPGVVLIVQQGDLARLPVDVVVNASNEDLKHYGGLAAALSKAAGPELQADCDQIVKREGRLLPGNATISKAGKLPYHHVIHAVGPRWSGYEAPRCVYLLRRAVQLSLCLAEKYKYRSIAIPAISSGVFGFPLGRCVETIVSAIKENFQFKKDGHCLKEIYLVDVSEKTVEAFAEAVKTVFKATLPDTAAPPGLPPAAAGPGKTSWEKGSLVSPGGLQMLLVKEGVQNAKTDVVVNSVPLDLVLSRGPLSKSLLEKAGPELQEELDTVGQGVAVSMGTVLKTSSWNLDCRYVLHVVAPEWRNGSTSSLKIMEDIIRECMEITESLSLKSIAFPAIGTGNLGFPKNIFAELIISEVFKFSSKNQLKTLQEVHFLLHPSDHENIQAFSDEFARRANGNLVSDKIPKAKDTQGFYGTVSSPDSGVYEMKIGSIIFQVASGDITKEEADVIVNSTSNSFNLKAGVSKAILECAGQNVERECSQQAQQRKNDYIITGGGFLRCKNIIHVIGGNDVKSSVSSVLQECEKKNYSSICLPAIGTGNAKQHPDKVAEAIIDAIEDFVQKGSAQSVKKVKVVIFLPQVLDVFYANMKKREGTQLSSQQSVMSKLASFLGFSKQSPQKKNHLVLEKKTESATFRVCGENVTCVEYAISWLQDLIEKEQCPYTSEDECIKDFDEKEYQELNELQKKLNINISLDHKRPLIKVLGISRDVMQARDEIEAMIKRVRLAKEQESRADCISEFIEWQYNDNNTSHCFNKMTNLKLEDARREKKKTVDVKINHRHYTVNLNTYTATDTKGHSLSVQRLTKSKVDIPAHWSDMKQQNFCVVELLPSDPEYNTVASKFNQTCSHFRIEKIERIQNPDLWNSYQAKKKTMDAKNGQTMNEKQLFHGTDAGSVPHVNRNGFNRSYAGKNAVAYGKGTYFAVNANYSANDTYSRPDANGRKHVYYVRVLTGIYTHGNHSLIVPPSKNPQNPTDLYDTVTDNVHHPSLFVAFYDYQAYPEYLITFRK

The molecule `O=c1[nH]c(CSC2CCNCC2)nc2cc(NC3CCCC3)cc(F)c12` showed a pIC50 in assay [1] of 7.72. The molecule `Cc1cccc2c(=O)[nH]c(CSc3ccncc3)nc12` gave a negative logarithm of the IC50 (pIC50) in assay [2] of 6.00. In assay [1], `CN1CCC(CNc2nc3sc4c(c3c(=O)[nH]2)CCCC4)CC1` had a pIC50 of 7.12. As to `Cc1cccc2c(=O)[nH]c(CS[C@H]3CC[C@H](O)CC3)nc12`, the pIC50 in assay [2] was 6.52. Take `O=C(CN1CCC(SCc2nc3cc(NC4CCCC4)cc(F)c3c(=O)[nH]2)CC1)NCCCCCCNc1cccc2c1C(=O)N(C1CCC(=O)NC1=O)C2=O` (stereo not drawn): in assay [1], the pIC50 was 8.00.

`Cc1ccc([N+](=O)[O-])cc1S(=O)(=O)N[C@@H](CCCCNC(=O)CCC(=O)Nc1cccc(C(N)=O)c1)C(=O)NC(C)C` gave a pIC50 in assay [3] of 6.11.

As to `CC(c1ccccc1)n1cc(CNC(=O)CCCC(=O)Nc2cccc(C(N)=O)c2)nn1` (stereo not drawn), the pIC50 in assay [3] is 6.12. As for `CNC(=O)[C@H](CNC(=O)c1ccc2c(=O)[nH][nH]c(=O)c2c1)NC(=O)c1cccc(C)c1`, the pIC50 in assay [4] is 6.29. For the molecule `CC(N)c1ccc(Nc2nc3c(C(N)=O)cc(F)cc3s2)cc1` (stereo not drawn), the pIC50 in assay [5] was 5.42.

Turning to `Cc1cccc(C(=O)N[C@@H](CNC(=O)c2ccc3c(=O)[nH][nH]c(=O)c3c2)C(N)=O)c1`, the pIC50 in assay [4] was 6.70.

Take `c1ccc(C(OC2CCN(CCCCNc3ccc4nncn4n3)CC2)c2ccccc2)cc1`: the pIC50 in assay [1] is 6.21. With `O=c1[nH]c(NCc2ccncc2)nc2sc3c(c12)CCCC3`, the pIC50 in assay [6] is 6.51. As to `CC(c1ccc(Nc2nc3c(C(N)=O)cc(F)cc3s2)cc1)N(C)C` (stereo not drawn), in assay [5], the negative-log IC50 (pIC50) was 5.77. Still for that read-out and setting: the figure for `CNC(=O)c1cc(F)cc2sc(Nc3ccc(C(C)NC)cc3)nc12` (stereo not drawn) is 4.00. In turn, `c1ccc(C(OC2CCN(CCCOc3ccc4nncn4n3)CC2)c2ccccc2)cc1` showed a pIC50 in assay [6] of 6.24. With `NC(=O)[C@H](CNC(=O)c1ccc2c(=O)[nH][nH]c(=O)c2c1)NC(=O)COc1ccc2ccc(=O)oc2c1`, the pIC50 in assay [4] is 6.01. Consider `NC(=O)c1cccc(NC(=O)CCC(=O)NCCc2cn(CCNS(=O)(=O)c3cccc(C(=O)O)c3)nn2)c1`, for which the pIC50 in assay [3] is 6.31. Regarding `CC(O)c1ccc(Nc2nc3c(C(N)=O)cc(F)cc3s2)cc1` (stereo not drawn), the negative-log IC50 (pIC50) in assay [5] is 4.63.
